How the values were obtained:
[1] = system: some paramyxoviruses and pneumoviruses; settings: cited from earlier work
[2] = system: pNiV viral membrane; set-up: species or system NiV
[3] = molecular target: NiV F and NiV G on pseudotyped NiV virions (Nipah virus, UniProt Q9IH62+Q9IH63)
[4] = molecular target: NiV F protein (Nipah virus, UniProt Q9IH63)
[5] = system: bovine rotavirus strain NCDV; test: Rotavirus infection assay in MA104 cells; type: cell-based
[6] = system: Vero cells; test: Cytotoxicity / cell viability assay (CCK-8)
[7] = system: NiV F and G glycoproteins; type: cell-based
[8] = system: vesicular stomatitis virus (VSV); type: cell-based
[9] = system: pNiV viral membrane; set-up: species or system NiV; remark: listed apart in the source
[10] = molecular target: NiV G glycoprotein (Nipah virus, UniProt Q9IH62)
[11] = system: Influenza virus; type: cell-based
[12] = system: Human respiratory syncytial virus (RSV A2 strain); test: Plaque assay for RSV infections; type: cell-based
[13] = system: HSV-1 KOS; type: cell-based
[14] = system: 293T cells transfected with NiV F and G; type: cell-based
[15] = system: pseudotyped NiV/VSV virus (pNiV); type: cell-based, Nipah virus

Chain of NiV G glycoprotein (Q9IH62 whole entry, looked up): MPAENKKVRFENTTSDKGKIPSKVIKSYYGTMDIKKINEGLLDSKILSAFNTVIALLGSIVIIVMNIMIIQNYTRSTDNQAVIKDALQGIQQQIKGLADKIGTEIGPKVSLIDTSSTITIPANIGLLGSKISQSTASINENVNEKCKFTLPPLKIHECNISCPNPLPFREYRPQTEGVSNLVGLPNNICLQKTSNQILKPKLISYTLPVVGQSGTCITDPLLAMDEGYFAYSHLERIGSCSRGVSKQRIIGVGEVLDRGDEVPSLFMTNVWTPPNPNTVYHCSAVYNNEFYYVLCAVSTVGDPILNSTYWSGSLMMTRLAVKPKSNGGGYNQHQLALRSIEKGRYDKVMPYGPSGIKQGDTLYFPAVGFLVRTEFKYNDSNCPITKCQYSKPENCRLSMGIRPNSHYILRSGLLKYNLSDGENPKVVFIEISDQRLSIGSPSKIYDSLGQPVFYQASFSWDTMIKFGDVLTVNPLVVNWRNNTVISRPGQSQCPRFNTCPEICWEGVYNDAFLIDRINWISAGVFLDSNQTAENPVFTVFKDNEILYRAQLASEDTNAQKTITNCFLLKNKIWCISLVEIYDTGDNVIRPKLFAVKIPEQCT
Chain of NiV F protein (Q9IH63 110-546 limits assumed): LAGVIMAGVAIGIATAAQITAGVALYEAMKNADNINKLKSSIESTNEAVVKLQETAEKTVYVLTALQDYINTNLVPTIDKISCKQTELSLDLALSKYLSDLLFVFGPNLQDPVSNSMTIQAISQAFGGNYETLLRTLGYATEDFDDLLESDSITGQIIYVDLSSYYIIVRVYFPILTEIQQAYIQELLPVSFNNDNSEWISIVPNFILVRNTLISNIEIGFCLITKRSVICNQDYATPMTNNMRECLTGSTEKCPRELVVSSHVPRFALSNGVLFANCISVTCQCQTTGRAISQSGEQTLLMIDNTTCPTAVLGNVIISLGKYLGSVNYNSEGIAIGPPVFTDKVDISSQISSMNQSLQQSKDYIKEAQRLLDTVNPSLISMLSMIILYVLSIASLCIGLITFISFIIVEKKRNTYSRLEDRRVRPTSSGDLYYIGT
Chain of NiV F protein (Q9IH63 27-109 limits assumed): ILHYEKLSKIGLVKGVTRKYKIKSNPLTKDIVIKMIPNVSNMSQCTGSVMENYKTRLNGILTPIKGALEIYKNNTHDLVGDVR

In the case of `C1COCCN1.COc1ccc(P(=S)(S)N2CCOCC2)cc1` (centres unmarked) [GYY4137], the EC50 [1] is listed as 10000 µM.

With `COC(=O)C(CSSC(=O)c1ccccc1)NC(=O)c1ccccc1` (centres unmarked) [XM-01] the “ratio of excimer to monomer (membrane fluidity)” value [2] was “considerably lower ratio of excimers to monomers”, the “glycoprotein conformations (antibody binding to NiV F or NiV G)” value [3] was “no significant changes in antibody binding” and the NiV-F protein triggering [4] was “not decreased”. For the same compound, the non-enveloped rotavirus infection [5] was “no significant inhibition”, the cytotoxicity ([6]; 1, 3, and 10 μM) was “low cytotoxicity” and the “difference between inhibitory and cytotoxic concentrations” value ([6]; EC50 pNiV vs CC50) was roughly 3 log. The CC50 ([6]; Vero cells, 1 μM-1 mM, calculated using Graphpad Prism) was roughly 1000 µM, the “protein G or F expression on cell surfaces” value [7] was “neither XM-01 at 10 μM nor LJ001 at 1 μM significantly affect” and the VSV infection [8] was “inhibited”. For the same compound, the “RNA spill from virions (TEM)” value [9] was “RNA spilled more frequently”, the “viral membrane appearance (TEM)” value [9] was “compromised viral membrane” and the “ephrinB2 receptor binding ability of NiV G” value [10] was “did not interfere”. The Influenza virus infection [11] was “inhibited”, the RSV infection [12] was “inhibited” and the HSV-1 plaque formation [13] was “inhibit HSV-1 plaque formation in a concentration-dependent fashion”. For the same compound, the “cell to cell fusion” value [14] was “inhibit cell to cell fusion”, the “capability of treated virions to infect Vero cells” value [15] was “highly inhibited” and the “inhibition when added after infection (time of addition)” value [15] was “completely incapable of inhibiting the virus”. For the same compound, the “inhibitory activity in the absence of light” value [15] was “did not need light to inhibit pNiV infections”, the inhibitory properties [15] was “high inhibitory properties” and the “potency as antiviral inhibitor compared with NaHS or GYY4137” value [15] was “much more potent”. For the same compound, the “viral infection of pretreated cells” value [15] was “did not significantly reduce viral infection”, the inhibition of infectivity ([15]; 10 μM) was “high inhibition of infectivity” and the EC50 ([15]; read-out: EC50 (inhibitory concentration, pNiV system)) was roughly 1 µM.

For `CC(=O)NC(CSSC(=O)c1ccccc1)C(=O)NCc1ccccc1` (centres unmarked) [XM-02], the inhibitory properties [15] was “high inhibitory properties”.

With `COC(=O)C(CSSC(C)=O)NC(=O)c1ccccc1` (centres unmarked) [XM-03] the inhibitory properties [15] was “high inhibitory properties”.

For `COC(=O)C(CSC(=O)c1ccccc1)NC(=O)c1ccccc1` (centres unmarked) [XM-10], the inhibitory properties [15] was “high inhibitory properties”.

With `COC(=O)C(CSC(C)=O)NC(=O)c1ccccc1` (centres unmarked) [XM-11] the inhibitory properties [15] was “high inhibitory properties”.

Source: patent US20180271823A1, “SULFUR-BASED BROAD SPECTRUM ANTIVIRALS” (priority 2017, published 2018)
